Data set [1] relates to CD34+ cells from normal human cord blood. Kind of data set: XTT colorimetric cytotoxicity assay on cord blood CD34+ cells. Conditions: FIG. 1, read-out: IC50, cytotoxicity against CD34+ cells (XTT). Format: cell-based. On the procedure: (§1) Determination of cell viability using the XTT assay: In some cases, CD34+ cells are isolated from human cord blood using magnetic beads coated with anti-CD34 antibody. Isolated cells are then counted and aliquoted into 96-well plates and then incubated in the presence of varying concentrations of cantharidin or norcantharidin. Cell viability it measured by the addition of the XTT calorimetric reagent. Viability is determined by the absorbance of treated cultures at approximately 450-500 nm compared to untreated cultures. In other cases, the cells used in the assay may be a leukemia cell line, such as MV4; 11. The assay can also be used to determine the time course of cell killing by various compounds by performing the XTT assay on cultures that are incubated with the compounds for varying periods of time.
(§2) CD34^+ cells were obtained from normal human cord blood by magnetic bead selection using anti-CD34 antibody coated beads. The cytotoxicity of cantharidin and norcantharidin against these cells was measured by a colorimetric assay using XTT (sodium 3′-{1-[(phenylamino)-carbonyl]-3,4-tetrazolium}-bis(4-methoxy-6-nitro) benzene-sulfonic acid hydrate). […] The absorbance of the supernatant was measured at 450 and 630 nm of wells without drug (with cells) as 100% and wells without cells as 0%. […]

For data set [2], the system named is CD34+ cells obtained from a leukemia patient (leukemic cancer stem cells). The data set can be described thus: Cobblestone area forming cell (CAFC) assay, leukemia patient versus cord blood CD34+ cells. Format: cell-based, human. The following applies: 10 μM and 75 μM overnight; for sensitivity of leukemia cancer stem cells relative to normal stem cells (cord blood CD34+): CAFC, 5 weeks; for activity against leukemic cancer stem cells (cobblestone area counts vs control): cobblestone areas counted after 5 weeks on MS-5 monolayer, FIGS. 2 and 3. The protocol:
(§3) Cobblestone assay: The cobblestone area-forming cell (CAFC) assay exploits a reproducible visual end point for the quantitation of cancer stem cells. Leukemia samples are added to adherent cultures of stromal cells, some embodiments MS-5 stromal cells. The cancer stem cells in the culture will migrate below the MS-5 stromal cells and form a colony of cells called a cobblestone that can be visual quantitated. To test the effect of cantharidin or norcantharidin on the cancer stem cell population using this assay, cells are first cultured in the presence of the drug. In some embodiments the cells are cultured for 16 hours. After this incubation, the cells are added to the stromal cultures. A reduction in the cobblestone area formation in cultures that were treated with the drug compared to the untreated cells represents cancer stem cell activity for the drug.
Cells were treated with 10 μM and 75 μM cantharidin or norcantharidin overnight. To assay for stem cells by the cobblestone area forming cell (CAFC) assay, CD34^+ cells subsequent to drug treatment were co-cultured with the MS-5 monolayer in X-Eagle minimum essential medium (α-MEM) containing 10% heat-inactivated FCS, 10% horse serum, 1×10^−6 M hydrocortisone, 2 mM L-glutamine, and 100 U/mL penicillin/streptomycin. After 5 weeks in culture, total cobblestone areas were counted. FIGS. 2 and 3 show bar graphs representing cobblestone area counts in the presence of no drug (control) and 10 and 75 μM of cantharidin and norcantharidin, respectively, using CD34+ cells obtained from a leukemia patient, and CD34+normal stem cells isolated from human cord blood.

In data set [3] the test system is MV4; 11 leukemia cells. The data set can be described thus: XTT cytotoxicity assay on MV4;11 leukemia cells, 5 days exposure. The following applies: 5 days of exposure to drug, read-out: IC50, cytotoxicity against MV4;11 leukemia cells (XTT). Format: cell-based. The protocol:
as §1
The cytotoxicity of Cantharidin and Norcantharidin against MV4; 11 leukemia cells was measured by a calorimetric assay using XTT. MV4; 11 cells were plated in 96-well plates and the following day, cells were exposed to varying doses of cantharidin and norcantharidin. After 5 days of exposure to drugs, 50 μL of 1 mg/mL XTT and 0.025 mM phenazine methosulfate (PMS) were added. The absorbance of the supernatant was measured at 450 and 630 nm of wells not treated with drug (with cells) as 100% and wells without cells as 0%.

Data set [4] concerns MV4; 11 cells. Kind of data set: XTT time course of killing of MV4;11 cells. Format: cell-based. Conditions: at 72 hours. On the procedure:
as §1
The XTT assay was used to determine the time course of killing of MV4; 11 cells incubated with cantharidin and norcantharidin over time.
Cantharidin was dissolved in DMSO at different concentrations to ensure that final concentrations of DMSO are equivalent in all wells. To control for potential cytotoxic effects of DMSO itself, an equivalent amount of DMSO containing no drug was used as a control.
Norcantharidin was dissolved in DMSO at different concentrations to ensure that final concentrations of DMSO are equivalent in all wells. To control for potential cytotoxic effects of DMSO itself, an equivalent amount of DMSO containing no drug was used as a control.

Data set [5] is described as follows: XTT colorimetric cytotoxicity assay on cord blood CD34+ cells. Format: cell-based. The following applies: CD34+ cells from normal human cord blood; FIG. 1; read-out: IC50, cytotoxicity against CD34+ cells (XTT). On the procedure: as §1, §2
Data set [6] deals with leukemia stem cells from bone marrow of a patient with acute myelgenous leukemia (AML). The data set can be described thus: CAFC assay of leukemia stem cells treated with cantharidin and standard chemotherapy. Format: cell-based, human. Conditions: 16 hours treatment, each of the concentrations tested; cobblestone areas after 5 weeks; FIG. 6. On the procedure:
as §3
Samples of primary human cord blood as well as from the bone marrow of a patient with acute myelgenous leukemia (AML) were tested. Cantharidin and norcantharidin were dissolved in DMSO, and Ara-c and daunorubicin were prepared according to the supplier's instructions. In addition, untreated controls (diluent alone) for both normal and leukemic CD34+ cells were also tested. Cells were treated with varying concentrations of drug for 16 hours. […] After 5 weeks in culture, total cobblestone areas were counted visually using a microscope.

The structures appear in SMILES notation. Where two headings read alike, the source gives them in different places.

For `O=C1OC(=O)[C@H]2[C@@H]1[C@@H]1CC[C@H]2O1` [norcantharidin], the figures for the concentration for half-maximal inhibition (IC50) in data set [1] and in data set [3] were 52 µM and 24 µM, respectively. In addition, the “sensitivity of leukemia cancer stem cells relative to normal stem cells (cord blood CD34+)” value in data set [2] is given as “increased sensitivity”. For the same compound, the “activity against leukemic cancer stem cells (cobblestone area counts vs control)” value in data set [2] is recorded as “potent activity”. Also, the “cell viability of MV4;11 cells” value in data set [4] (30 μM) and in data set [4] (100 μM) was “less than 10%” in each case.
Turning to `C[C@@]12C(=O)OC(=O)[C@]1(C)[C@H]1CC[C@@H]2O1` [cantharidin], the IC50 in data set [5] was 6.5 µM; in data set [3] (Homo sapiens, MV4-11, 120 h) it was 7.5 µM. Besides, the “sensitivity of leukemia cancer stem cells relative to normal stem cells (cord blood CD34+)” value in data set [2] is reported as “increased sensitivity”. Further, the “activity against leukemic cancer stem cells (cobblestone area counts vs control)” value in data set [2] is “potent activity”. In data set [4] (Homo sapiens, MV4-11, 30 μM, read-out: cell viability of MV4;11 cells), the viability at 30 µM is below 10%. The viability at 100 µM in data set [4] (Homo sapiens, MV4-11, 100 μM, read-out: cell viability of MV4;11 cells) is below 10%. In data set [6], the “sensitivity of leukemia stem cells compared with cytarabine or daunorubicin (CAFC)” value is “more sensitive”.

Source of the values: patent US20080267947A1, “Cancer therapy with cantharidin and cantharidin analogs” (priority 2006, published 2008).
